Data: ChEMBL document CHEMBL1201862, “PubChem BioAssay data set” (2004)
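Dose response: 5 concentrations. Exposure: 48 h. Format: 96-well plates. Endpoint: linear interpolation; highest concentration if not reached. Here, GI50 denotes the concentration required for 50% inhibition of growth.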 Calls of active or inactive are those of the source. Cut-off read from the data, not from the text of the source: active = GI50 up to about 1.1 µM and inactive = higher. Where a SMILES comes first, the peptide text is derived from it. The star is where a group is joined. Boc = CC(C)(C)OC(=O)*

How the values were obtained:
Assay in all cases: NCI tumour cell line growth inhibition, 48 h
[1] = test system: KM12
[2] = test system: HCT-116
[3] = test system: CCRF-CEM
[4] = test system: MCF7
[5] = test system: M14
[6] = test system: HCT-15
[7] = test system: SNB-19
[8] = test system: EKVX
[9] = test system: K562
[10] = test system: NCI-H226
[11] = test system: SF-295
[12] = test system: OVCAR-4
[13] = test system: HOP-92
[14] = test system: TK-10
[15] = test system: RXF 393
[16] = test system: COLO 205
[17] = test system: MDA-MB-435
[18] = test system: SK-MEL-5
[19] = test system: BT-549
[20] = test system: RPMI-8226

| SMILES | GI50 [1] | GI50 [2] | GI50 [3] | GI50 [4] | GI50 [5] | GI50 [6] [µM] | GI50 [7] | GI50 [8] | GI50 [9] | GI50 [10] | GI50 [11] | GI50 [12] | GI50 [13] | GI50 [14] | GI50 [15] | GI50 [16] | GI50 [17] | GI50 [18] | GI50 [19] | GI50 [20] |
| --- | --- | --- | --- | --- | --- | --- | --- | --- | --- | --- | --- | --- | --- | --- | --- | --- | --- | --- | --- | --- |
| CSCCCNC(=O)c1csc(-c2csc(CCNC(=O)CNC(=O)CNC(=O)OC(C)(C)C)n2)n1 | > 100 µM (inactive) | > 100 µM (inactive) | > 100 µM (inactive) | > 100 µM (inactive) | > 100 µM (inactive) | > 100 | > 100 µM (inactive) | > 100 µM (inactive) | > 100 µM (inactive) | > 100 µM (inactive) | > 100 µM (inactive) | > 100 µM (inactive) | > 100 µM (inactive) | > 100 µM (inactive) | > 100 µM (inactive) | > 100 µM (inactive) | > 100 µM (inactive) | > 100 µM (inactive) | > 100 µM (inactive) | – |
| COc1ccc(/C=C2\c3cc(OC)c(OC)cc3CCN2C(=O)c2ccccc2)cc1OC | 49.9 µM (inactive) | 35.5 µM (inactive) | 32.3 µM (inactive) | 43.9 µM (inactive) | 58.2 µM (inactive) | 42.4 | > 100 µM (inactive) | 4.09 µM (inactive) | 32.1 µM (inactive) | 37.9 µM (inactive) | 61.4 µM (inactive) | – | > 100 µM (inactive) | > 100 µM (inactive) | 35.2 µM (inactive) | 23.9 µM (inactive) | 21.2 µM (inactive) | 18.5 µM (inactive) | 27.7 µM (inactive) | 29.4 µM (inactive) |
| COc1cc(CC2CCc3nc(N)nc(N)c3C2)cc(OC)c1OC (stereo unspecified) | 1.18 µM (inactive) | 0.0457 µM (active) | – | 0.527 µM (active) | 0.195 µM (active) | 0.0925 | > 22.9 µM (inactive) | 0.701 µM (active) | 5.3 µM (inactive) | > 24.3 µM (inactive) | 0.21 µM (active) | > 45.6 µM (inactive) | 26.5 µM (inactive) | > 45.7 µM (inactive) | 0.0422 µM (active) | 1.6 µM (inactive) | 4.24 µM (inactive) | 0.0834 µM (active) | 9.55 µM (inactive) | 5.83 µM (inactive) |
| COC(=O)C1=CC(=O)OC1(OO)c1ccccc1 (stereo unspecified) | > 100 µM (inactive) | 88.3 µM (inactive) | 18.7 µM (inactive) | > 100 µM (inactive) | > 100 µM (inactive) | 54 | > 100 µM (inactive) | > 100 µM (inactive) | 33.5 µM (inactive) | > 100 µM (inactive) | > 100 µM (inactive) | > 100 µM (inactive) | 30.8 µM (inactive) | > 100 µM (inactive) | > 100 µM (inactive) | > 100 µM (inactive) | > 100 µM (inactive) | > 100 µM (inactive) | > 100 µM (inactive) | – |
| Oc1ccc(Br)cc1/C=N/C1CCCCC1 | 29.8 µM (inactive) | 12.4 µM (inactive) | 5.37 µM (inactive) | 14.6 µM (inactive) | 34.8 µM (inactive) | 5.56 | 53 µM (inactive) | > 100 µM (inactive) | 17.7 µM (inactive) | – | 41.8 µM (inactive) | 21.1 µM (inactive) | 72.1 µM (inactive) | > 100 µM (inactive) | > 100 µM (inactive) | 65.5 µM (inactive) | 28.2 µM (inactive) | 19.2 µM (inactive) | 35.3 µM (inactive) | 28.1 µM (inactive) |
| Cc1cccc(N2C(=O)C3c4[nH]c5ccccc5c4C4CCC(C(C)(C)C)CC4C3C2=O)c1 (stereo unspecified) | 11.9 µM (inactive) | 9.29 µM (inactive) | 8.57 µM (inactive) | 12 µM (inactive) | 13.3 µM (inactive) | 29.4 | 13.2 µM (inactive) | 14.4 µM (inactive) | 5.89 µM (inactive) | 18.7 µM (inactive) | 9.29 µM (inactive) | 12.9 µM (inactive) | – | 14.2 µM (inactive) | 12.4 µM (inactive) | 11.9 µM (inactive) | 15.2 µM (inactive) | 15.1 µM (inactive) | 19 µM (inactive) | 12.7 µM (inactive) |
| CC(C)(C)OC(=O)NCC(=O)NCC(=O)NCC(=O)NCC(=O)O (Boc-GGGG-OH) | > 100 µM (inactive) | > 100 µM (inactive) | > 100 µM (inactive) | > 100 µM (inactive) | > 100 µM (inactive) | > 100 | > 100 µM (inactive) | > 100 µM (inactive) | > 100 µM (inactive) | – | > 100 µM (inactive) | > 100 µM (inactive) | > 100 µM (inactive) | > 100 µM (inactive) | > 100 µM (inactive) | > 100 µM (inactive) | > 100 µM (inactive) | > 100 µM (inactive) | > 100 µM (inactive) | > 100 µM (inactive) |
| COC(=O)C1(C)CCC(c2ccc(C)cc2)=C(CC(=O)O)C1 (stereo unspecified) | – | > 100 µM (inactive) | – | > 100 µM (inactive) | > 100 µM (inactive) | > 100 | > 100 µM (inactive) | > 100 µM (inactive) | > 100 µM (inactive) | – | > 100 µM (inactive) | > 100 µM (inactive) | > 100 µM (inactive) | > 100 µM (inactive) | > 100 µM (inactive) | > 100 µM (inactive) | > 100 µM (inactive) | > 100 µM (inactive) | > 100 µM (inactive) | > 100 µM (inactive) |
| CCCCCCN(CCCCCC)CCC(=O)c1ccc2cc(Br)c3ccccc3c2c1 | 11.5 µM (inactive) | 78.3 µM (inactive) | – | 20.2 µM (inactive) | 82.6 µM (inactive) | 33.8 | 44.3 µM (inactive) | > 100 µM (inactive) | 41.1 µM (inactive) | 69.7 µM (inactive) | 59 µM (inactive) | – | 19.4 µM (inactive) | 26.4 µM (inactive) | 20.7 µM (inactive) | 22.6 µM (inactive) | 26.1 µM (inactive) | 26.1 µM (inactive) | 20.3 µM (inactive) | 9.31 µM (inactive) |
| CCOC(=O)c1cn(-c2ccc(Cl)cc2)c(=O)n2c1nc1ccccc12 | > 100 µM (inactive) | > 100 µM (inactive) | > 100 µM (inactive) | > 100 µM (inactive) | > 100 µM (inactive) | > 100 | > 100 µM (inactive) | > 100 µM (inactive) | > 100 µM (inactive) | > 100 µM (inactive) | > 100 µM (inactive) | > 100 µM (inactive) | > 100 µM (inactive) | – | > 100 µM (inactive) | > 100 µM (inactive) | > 100 µM (inactive) | > 100 µM (inactive) | > 100 µM (inactive) | > 100 µM (inactive) |
| CC(=O)OCC1OC(n2nc(Cc3ccccc3)c(=S)[nH]c2=S)C(OC(C)=O)C(OC(C)=O)C1OC(C)=O (stereo unspecified) | 20.5 µM (inactive) | 21.3 µM (inactive) | – | 27.7 µM (inactive) | 19.4 µM (inactive) | 19.4 | 27.7 µM (inactive) | – | 26.9 µM (inactive) | 54.1 µM (inactive) | 43.2 µM (inactive) | 21.3 µM (inactive) | 20.4 µM (inactive) | 57.8 µM (inactive) | 22.9 µM (inactive) | 89.7 µM (inactive) | 18.1 µM (inactive) | 82 µM (inactive) | 19.6 µM (inactive) | – |
| CC1=C(C)C(=O)OC(C(C)(O)C2(O)CCC3(O)C4CC(Cl)C5(O)C(O)C=CC(=O)C5(C)C4CCC32C)C1 (stereo unspecified) | 25.6 µM (inactive) | 19.1 µM (inactive) | 14.1 µM (inactive) | 8.85 µM (inactive) | 40.3 µM (inactive) | 28.7 | 49.8 µM (inactive) | 53.7 µM (inactive) | 12.3 µM (inactive) | > 100 µM (inactive) | 30.3 µM (inactive) | 57.4 µM (inactive) | > 100 µM (inactive) | 34.3 µM (inactive) | 18.5 µM (inactive) | 12.9 µM (inactive) | 18.7 µM (inactive) | – | 46.3 µM (inactive) | 8.99 µM (inactive) |
| Cc1ccc(O)c(-c2cc(-c3cccc(Cl)c3)c(C#N)c(N)n2)c1 | 19.6 µM (inactive) | 16.2 µM (inactive) | 24.4 µM (inactive) | 13.5 µM (inactive) | 20.9 µM (inactive) | 12.2 | – | 14 µM (inactive) | 21.5 µM (inactive) | 18.7 µM (inactive) | 14.8 µM (inactive) | 15.9 µM (inactive) | 13.1 µM (inactive) | 18.1 µM (inactive) | 19.3 µM (inactive) | 15.7 µM (inactive) | 13.9 µM (inactive) | 14.4 µM (inactive) | 36.3 µM (inactive) | 19.6 µM (inactive) |
| CN(C)CCNc1ccc(NCC[N+](C)(C)Cc2ccc([N+](=O)[O-])cc2)c2c1C(=O)c1ccccc1C2=O | 13.8 µM (inactive) | 10.9 µM (inactive) | – | 11.9 µM (inactive) | 21.6 µM (inactive) | – | – | > 25 µM (inactive) | – | 23.4 µM (inactive) | 18.6 µM (inactive) | – | > 25 µM (inactive) | > 25 µM (inactive) | > 25 µM (inactive) | 7.28 µM (inactive) | > 25 µM (inactive) | 12.2 µM (inactive) | > 25 µM (inactive) | 10.8 µM (inactive) |
| [N-]=[N+]=CC(=O)C1CCN(c2ccccc2)C1=O (stereo unspecified) | > 10 µM (inactive) | > 10 µM (inactive) | > 10 µM (inactive) | > 10 µM (inactive) | > 10 µM (inactive) | > 10 | > 10 µM (inactive) | > 10 µM (inactive) | > 10 µM (inactive) | > 10 µM (inactive) | > 10 µM (inactive) | > 10 µM (inactive) | – | > 10 µM (inactive) | > 10 µM (inactive) | > 10 µM (inactive) | > 10 µM (inactive) | > 10 µM (inactive) | > 10 µM (inactive) | > 10 µM (inactive) |
